In paper PMC12197871 (Protein Science : A Publication of the Protein Society, 2025):
“Also recorded” adds a separate entry of the source.

How the values were obtained:
GsLDH [1] = biological target: T1, GsLDH (Geobacillus stearothermophilus, UniProt P00344); test: Isothermal titration calorimetry of cofactor binding to GsLDH; settings: for K B × 10^5 / TΔS B / ΔG B / ΔH B / binding stoichiometry n / Kd: presence of FBP; for K B × 10^5 / TΔS B / ΔG B / ΔH B / Kd: 30°C; for enthalpy change on titration of the enzyme: absence of FBP; for Kd: K d
GsLDH [2] = biological target: T1, GsLDH; test: GsLDH kinetic studies; format: biochemical; settings: WT GsLDH

T1 sequence (P00344 whole entry): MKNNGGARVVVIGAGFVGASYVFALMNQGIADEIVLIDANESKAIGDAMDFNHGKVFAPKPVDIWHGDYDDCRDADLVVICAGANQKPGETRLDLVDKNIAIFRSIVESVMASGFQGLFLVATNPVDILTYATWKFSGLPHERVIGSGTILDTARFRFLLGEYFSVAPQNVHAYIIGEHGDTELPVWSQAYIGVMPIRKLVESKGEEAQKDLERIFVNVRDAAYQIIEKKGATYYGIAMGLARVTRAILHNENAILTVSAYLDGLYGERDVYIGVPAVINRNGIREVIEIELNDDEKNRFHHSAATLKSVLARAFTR

Compound	K B × 10^5 (GsLDH [1]; WT)	TΔS B (GsLDH [1]; WT)	ΔG B (GsLDH [1]; WT)	ΔH B (GsLDH [1]; WT)	enthalpy change on titration of the enzyme (GsLDH [1])	binding stoichiometry n (GsLDH [1])	Kd (GsLDH [1]; WT with pyruvate)	Kd (GsLDH [1]; WT)	K B × 10^5 (GsLDH [1]; WT with pyruvate)	TΔS B (GsLDH [1]; WT with pyruvate)	ΔG B (GsLDH [1]; WT with pyruvate)	ΔH B (GsLDH [1]; WT with pyruvate)	fold decrease of K m for pyruvate in the presence of FBP (GsLDH [2])	fold improvement of catalytic efficiency (k cat/K m) in the presence of FBP (GsLDH [2])
reduced nicotinamide adenine dinucleotide [NADH]	8 ± 2 10^5 M^−1	-50.8 kcal/mol	-8.2 kcal/mol	-59 ± 4 kcal/mol	did not result in significant enthalpy changes; also recorded: too low to be detected	~1								
NC(=O)c1ccc[n+]([C@@H]2O[C@H](COP(=O)([O-])OP(=O)(O)OC[C@H]3O[C@@H](n4cnc5c(N)ncnc54)[C@H](O)[C@@H]3O)[C@@H](O)[C@H]2O)c1 [NAD^+, oxidized nicotinamide adenine dinucleotide]	3 ± 2 10^5 M^−1	-134.4 kcal/mol	-7.6 kcal/mol	-142 ± 20 kcal/mol	did not result in significant enthalpy changes	~1	1600 nM	3000 nM	6 ± 2 10^5 M^−1	-37.0 kcal/mol	-8.0 kcal/mol	-45 ± 2 kcal/mol		
O=C(COP(=O)(O)O)[C@@H](O)[C@H](O)[C@H](O)COP(=O)(O)O [FBP, fructose 1,6‐bisphosphate]													5.6 fold	3.3 fold
